{"source": "patent US11285127B2", "about": "“Compositions and methods for lowering triglycerides without raising LDL-C levels in a subject on concomitant statin therapy” (Amarin Pharmaceuticals Ireland Limited, priority 2013, dated 2022)", "tested_on": "patients with fasting triglyceride levels >200 mg/dl and <500 mg/dl despite statin therapy", "assay": "12-week study: inflammatory biomarkers (ICAM-1, interleukin, PAI-1, hsCRP)", "format": "in vivo, human", "details": "MITT; for ICAM-1, Difference from placebo, Estimated median / IL-6, Difference from placebo, Estimated median / PAI-1, Difference from placebo, Estimated median / hsCRP, Difference from placebo, Estimated median: Week 12; for hsCRP, Difference from placebo, Estimated median: post-hoc, median percent change from baseline; for ICAM-1, Week 12 EP Median (IQR) / IL-6, Week 12 EP Median (IQR) / PAI-1, Week 12 EP Median (IQR) / hsCRP, Week 12 EP Median (IQR): Week 12 endpoint (LOCF); for hsCRP, Week 12 EP Median (IQR) / hsCRP, Median % Chg from BL (IQR): post-hoc analysis; for ICAM-1, change from Baseline, Median (IQR) / IL-6, change from Baseline, Median (IQR) / PAI-1, change from Baseline, Median (IQR) / hsCRP, Median % Chg from BL (IQR): baseline to Week 12", "from_the_text": "Parameters (a)-(z) can be measured in accordance with any clinically acceptable methodology. For example, triglycerides, total cholesterol, HDL-C and fasting blood sugar can be sample from serum and analyzed using standard photometry techniques. VLDL-TG, LDL-C and VLDL-C can be calculated or determined using serum lipoprotein fractionation by preparative ultracentrifugation and subsequent quantitative analysis by refractometry or by analytic ultracentrifugal methodology. Apo A1, Apo B and hsCRP can be determined from serum using standard nephelometry techniques. Lipoprotein (a) can be determined from serum using standard turbidimetric immunoassay techniques. LDL particle number and particle size can be determined using nuclear magnetic resonance (NMR) spectrometry. Remnants lipoproteins and LDL-phospholipase A2 can be determined from EDTA plasma or serum and serum, respectively, using enzymatic immunoseparation techniques. Oxidized LDL, intercellular adhesion molecule-1 and interleukin-2 levels can be determined from serum using standard enzyme immunoassay techniques. These techniques are described in detail in standard textbooks, for example Tietz Fundamentals of Clinical Chemistry, 6th Ed. (Burtis, Ashwood and Borter Eds.), WB Saunders Company.\nA multi-center, placebo-controlled, randomized, double-blind, 12-week study was performed to evaluate the efficacy and safety of >96% E-EPA in patients with fasting triglyceride levels >200 mg/dl and <500 mg/dl despite statin therapy (the mean of two qualifying entry values needed to be >185 mg/dl and at least one of the values needed to be >200 mg/dl). The primary objective of the study was to determine the efficacy of >96% E-EPA 2 g daily and 4 g daily, compared to placebo, in lowering fasting TG levels in patients with high risk for cardiovascular disease and with fasting TG levels 200 mg/dl and <500 mg/dl, despite treatment to LDL-C goal on statin therapy.\nThe secondary objectives of this study were the following: • 1. To determine the safety and tolerability of >96% E-EPA 2 g daily and 4 g daily; • 2. To determine the effect of >96% E-EPA on lipid and apolipoprotein profiles including total cholesterol (TC), non-high-density lipoprotein cholesterol (non-HDL-C), low density lipoprotein cholesterol (LDL-C), high density lipoprotein cholesterol (HDL-C), and […]; • 3. To determine the effect of >96% E-EPA on lipoprotein associated phospholipase A2 (Lp-PLA2) from baseline to week 12; • 4. To determine the effect of >96% E-EPA on low-density lipoprotein (LDL) particle number and size; • 5. To determine the effect of >96% E-EPA on oxidized LDL; • 6. To determine the effect of >96% E-EPA on fasting plasma glucose (FPG) and hemoglobin A1c (HbA1c); • 7. To determine the effect of >96% E-EPA on insulin resistance; • 8. To determine the effect of >96% E-EPA on high-sensitivity C-reactive protein (hsCRP); • 9. To determine the effects of >96% E-EPA 2 g daily and 4 g daily on the incorporation of fatty acids into red blood cell membranes and into plasma phospholipids; • 10. To explore the relationship between baseline fasting TG levels and the reduction in fasting TG levels; and • 11. To explore the relationship between changes of fatty acid concentrations in plasma and red blood cell membranes, and the reduction in fasting TG levels.\nThe primary efficacy variable for the double-blind treatment period was percent change in TG from baseline to Week 12 endpoint. […]", "key": {"[1]": {"details": "AMR101 2 g/d + statin vs placebo"}, "[2]": {"details": "AMR101 4 g/d + statin vs placebo"}}}
{"smiles": "CC/C=C\\C/C=C\\C/C=C\\C/C=C\\C/C=C\\CCCC(=O)OCC", "note": "[AMR101, ethyl eicosapentaenoate]", "values": [{"measurement": "ICAM-1, Difference from placebo, Estimated median", "setting": "[1]", "result": -6.0, "unit": "ng/mL"}, {"measurement": "IL-6, Difference from placebo, Estimated median", "setting": "[1]", "result": 0.1, "unit": "pg/mL"}, {"measurement": "PAI-1, Difference from placebo, Estimated median", "setting": "[1]", "result": 12.1, "unit": "ng/mL"}, {"measurement": "hsCRP, Difference from placebo, Estimated median", "setting": "[1]", "result": "−6.8", "unit": "%"}, {"measurement": "ICAM-1, Week 12 EP Median (IQR)", "setting": "AMR101 2 g/d + statin", "result": "268.5 (89.0) ng/mL"}, {"measurement": "IL-6, Week 12 EP Median (IQR)", "setting": "AMR101 2 g/d + statin", "result": "2.7 (2.3) pg/mL"}, {"measurement": "PAI-1, Week 12 EP Median (IQR)", "setting": "AMR101 2 g/d + statin", "result": "90.3 (67.4) ng/mL"}, {"measurement": "hsCRP, Week 12 EP Median (IQR)", "setting": "AMR101 2 g/d + statin", "result": "2.5 (3.4) mg/L"}, {"measurement": "ICAM-1, change from Baseline, Median (IQR)", "setting": "AMR101 2 g/d + statin", "result": "1.5 (37.0) ng/mL"}, {"measurement": "IL-6, change from Baseline, Median (IQR)", "setting": "AMR101 2 g/d + statin", "result": "0.2 (1.3) pg/mL"}, {"measurement": "PAI-1, change from Baseline, Median (IQR)", "setting": "AMR101 2 g/d + statin", "result": "14.6 (38.8) ng/mL"}, {"measurement": "hsCRP, Median % Chg from BL (IQR)", "setting": "AMR101 2 g/d + statin", "result": "10.3 (88.6) %"}, {"measurement": "ICAM-1, Difference from placebo, Estimated median", "setting": "[2]", "result": -6.0, "unit": "ng/mL"}, {"measurement": "IL-6, Difference from placebo, Estimated median", "setting": "[2]", "result": -0.1, "unit": "pg/mL"}, {"measurement": "PAI-1, Difference from placebo, Estimated median", "setting": "[2]", "result": 0.6, "unit": "ng/mL"}, {"measurement": "hsCRP, Difference from placebo, Estimated median", "setting": "[2]", "result": "−22.0", "unit": "%"}, {"measurement": "ICAM-1, Week 12 EP Median (IQR)", "setting": "AMR101 4 g/d + statin", "result": "270.0 (110.0) ng/mL"}, {"measurement": "IL-6, Week 12 EP Median (IQR)", "setting": "AMR101 4 g/d + statin", "result": "2.6 (2.1) pg/mL"}, {"measurement": "PAI-1, Week 12 EP Median (IQR)", "setting": "AMR101 4 g/d + statin", "result": "85.6 (86.3) ng/mL"}, {"measurement": "hsCRP, Week 12 EP Median (IQR)", "setting": "AMR101 4 g/d + statin", "result": "2.0 (3.0) mg/L"}, {"measurement": "ICAM-1, change from Baseline, Median (IQR)", "setting": "AMR101 4 g/d + statin", "result": "2.5 (40.0) ng/mL"}, {"measurement": "IL-6, change from Baseline, Median (IQR)", "setting": "AMR101 4 g/d + statin", "result": "0.1 (1.8) pg/mL"}, {"measurement": "PAI-1, change from Baseline, Median (IQR)", "setting": "AMR101 4 g/d + statin", "result": "−3.1 (45.2) ng/mL"}, {"measurement": "hsCRP, Median % Chg from BL (IQR)", "setting": "AMR101 4 g/d + statin", "result": "−2.4 (62.8) %"}]}
